Laboratory results: patent US7973024B2, “24-sulfoximine vitamin D3 compounds” (Cyctochroma Inc., priority 2002, dated 2011)

What was measured:
Type in all cases: cell-based
[1] = biological target: T1, CYP24 (Homo sapiens, UniProt Q07973); assay: In vitro test of ability to inhibit specifically CYP24 (standard protocol); details: ketoconazole as control standard
T1 construct: expressed in transfected cells
T1 sequence (Q07973 36-514): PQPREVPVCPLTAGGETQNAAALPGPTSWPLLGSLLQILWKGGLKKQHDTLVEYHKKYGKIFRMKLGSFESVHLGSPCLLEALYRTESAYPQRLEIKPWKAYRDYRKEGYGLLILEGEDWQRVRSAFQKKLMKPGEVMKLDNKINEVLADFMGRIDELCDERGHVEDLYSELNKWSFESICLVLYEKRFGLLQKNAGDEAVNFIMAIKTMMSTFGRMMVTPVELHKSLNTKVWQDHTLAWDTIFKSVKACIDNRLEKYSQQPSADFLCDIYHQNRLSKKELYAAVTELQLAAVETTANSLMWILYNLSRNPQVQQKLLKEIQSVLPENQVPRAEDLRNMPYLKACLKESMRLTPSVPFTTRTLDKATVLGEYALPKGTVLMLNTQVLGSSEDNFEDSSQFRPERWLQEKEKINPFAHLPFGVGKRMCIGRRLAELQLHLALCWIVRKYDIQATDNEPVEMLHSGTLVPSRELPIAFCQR

[2] = system: normal human epidermal keratinocytes (NHEK); assay: Human epidermal keratinocyte proliferation assay; details: together with calcitriol, three days, [3H]-thymidine 18 h
Procedure: 1. HEK Cell Media • Supplemented KGM media with additional reagents provided in the bullet kit as per supplier's instructions. • Added calcium chloride to final concentration of 0.3 mM.
2. Calcitriol Dilutions • Stock: Calcitriol (1 mM)
3. Substrate Dilutions • Stock: substrate (0.1 mM)
1. Cell Culture • Thawed one vial of HEK cells containing at least 500 K, and divided into 5 25 cm^2 flasks with 5 ml HEK cell media. 24 h later, removed media and replenished with 5 ml fresh media. Changed media again 48 h later.
2. Preparation of Cell Suspension • On the day of the assay, washed the monolayer of HEK cells once with 1×PBS buffer (provided in reagent pack) and then trypsinized for 5 min at 37° C. Added trypsin neutralizing solution (provided in reagent pack). Collected cells into tube, centrifuged cells (500×g, 5 min) and resuspended in HEK cell media. Counted cells and adjusted density to 150,000 cells/ml. Diluted cells further 1:30 with HEK cell media.
2. Cell Plating • Added 150 μl of cell suspension to appropriately labelled wells of a 96-well plate. Incubated plate for 48 h at 37° C. in a humidified atmosphere containing 5% CO2 for adherence of cells to wells.
3. […]
4. Cell Harvesting and Counting • Added 0.2 μCi/well of [^3H]-thymidine in 20 μl of HEK cell media to each well. Incubated plates for 18 h at 37° C. in a humidified atmosphere containing 5% CO2. Aspirated media and washed with 1×PBS. Trypsinize-cells for 30 min at 37° C. in a humidified atmosphere containing 5% CO2. Harvested cells onto filter plates using Tomtec cell harvester as per manufacturer's instructions. Added 25 μl scintillation fluid per well. Measured radioactivity using a scintillation counter. All values were normalized for background.

[3] = system: MCF-7 cells; assay: [3H]-thymidine proliferation assay with MCF-7 cells; details: together with calcitriol, three days, [3H]-thymidine 6 h
Procedure: 1. Preparation of Cell Suspension • When MCF-7 cells were 70-80% confluent, aspirated growth media. Washed the cells with 1×PBS. Trypsinized with trypsin-EDTA from the plate, collected cells from the tissue culture flask, centrifuged (500×g, 5 min) and resuspended in growth media.
2. Cell Plating. • Counted the cells and adjusted the cell density to 25,000/ml. Added 200 μl per well in a 96 well plate. Incubated plate for 24 h at 37° C. in a humidified atmosphere plus 5% CO2. Aspirated used media and replaced with 150 μl per well with proliferation media.
3. Substrate Addition. • Added 25 μl of 1α,25(OH)2D3 (final concentration 10^−6 M, 10^−7 M, 10^−8 M, 10^−9 M, 10^−10 M, 10^−11 M) into each designated well. Added 25 μl of substrate (final concentration 10^−7 M, 5×10^−8 M, 10^−8 M or 10^−9 M) into each designated well. Incubated plates for 3 days at 37° C. in a humidified atmosphere plus 5% CO2.
4. ^3H-Thymidine incorporation. • Added ^3H-thymidine at 0.02 μCi per well and incubated at 37° C. in a humidified atmosphere plus 5% CO2 for 6 h.
5. Plate Harvesting. • Aspirated all media and washed cells with 1×PBS. Trypsinized cells for 30 min at 37° C. in a humidified atmosphere plus 5% CO2. Harvested cells onto a 96 well filter plate (Millipore) using a Tomtec Cell Harvestor, according to manufacturers instructions.
6. Scintillation Counting. • Added 25 μl of scintillation fluid per well. Counted the plate using a scintillation counter.

selective inhibition of CYP24 [1]	Compound	inhibition of proliferation of normal human epidermal keratinocytes (NHEK) [2]	inhibition of proliferation of MCF-7 cells [3]
selectively inhibit	C=C1/C(=C\C=C2/CCC[C@]3(C)[C@@H]([C@H](C)CCS(=O)(=NC)c4ccccc4)CC[C@@H]23)C[C@@H](O)C[C@@H]1O (single isomer, unassigned) [I(e)]	act to inhibit the proliferation	act to inhibit the proliferation
	C=C1/C(=C\C=C2/CCC[C@]3(C)[C@@H]([C@H](C)CCS(=N)(=O)c4ccccc4)CC[C@@H]23)C[C@@H](O)C[C@@H]1O (single isomer, unassigned) [I(a)]	act to inhibit the proliferation	act to inhibit the proliferation
selectively inhibit	C=C1/C(=C\C=C2/CCC[C@]3(C)[C@@H]([C@H](C)CCS(=O)(=NC)c4ccccc4)CC[C@@H]23)C[C@@H](O)C[C@@H]1O (single isomer, unassigned) [I(g)]		act to inhibit the proliferation
selectively inhibit	C[C@H](CCS(=N)(=O)c1ccccc1)[C@H]1CC[C@H]2/C(=C/C=C3C[C@@H](O)C[C@H](O)C3)CCC[C@]12C (single isomer, unassigned) [I(i), 24-Phenyl Sulfoximine 19-Nor-Vitamin-D3]	act to inhibit the proliferation	act to inhibit the proliferation
